Measured values as given in patent US12599588B2, “Inhibitor for V-ATPase activity, antibacterial agent, medicine, antibacterial method and screening method” (Japan Science and Technology Agency, priority 2019, dated 2026).
“Also recorded” adds a separate entry of the source.

Key:
[1] = molecular target: T1, V-ATPase (purified from enterococci or recombinant E. coli) (Enterococcus hirae, UniProt P43439+P43457); test: ATPase activity measurement (molybdenum blue method, primary screening); type: biochemical
T1 construct: made in house; host or cells: Enterococcus hirae (native) or recombinant E. coli
Method: The ATPase activity can be measured by a molybdenum blue method for measuring absorbance of the inorganic phosphoric acid generated by hydrolysis of ATP. As the reaction conditions, conditions for measuring the ATPase activity can be adopted. As the buffer solution used in the reaction, Tris-HCl buffer can be used. The reaction time is usually 10 to 60 minutes, but can be appropriately adjusted depending on the air temperature or the like. The reaction of V-ATPase is terminated with the addition of a surfactant such as sodium dodecyl sulfate (SDS), and into which a color-developing liquid (such as ferrous sulfate) is added to give a color, and then the concentration of the inorganic phosphoric acid can be calculated by the measurement of the absorbance at a wavelength of 650 nm.
From the concentration of inorganic phosphoric acid calculated above, the inhibition rate of the V-ATPase reaction can be calculated. That is, a graph is created in which the inhibition rate is plotted on the vertical axis and the concentration of compound is plotted on the horizontal axis, and the concentration (IC50) at which the inhibition rate becomes 50% is determined. As the concentration of compound at which IC50 is obtained becomes lower, a higher V-ATPase inhibitory effect is exerted with a small amount, and accordingly, the compound can be taken as a candidate compound for the inhibitor for V-ATPase activity.
The V-ATPase was prepared by the method disclosed in the following papers. • Paper 1: Takeshi Murata, et. al, “Purification and Reconstitution of Na^+-translocating Vacuolar ATPase from Enterococcus hirae”, J. Biol. Chem. 272, 24885-24890 (1997) • Paper 2: Takeshi Murata, et. al, “Torque Generation of Enterococcus hirae V-ATPase”, J. Biol. Chem. 289, 31212-31223 (2014)
ATPase activity measurement was conducted by a molybdenum blue method that quantifies the inorganic phosphoric acid generated by hydrolysis of ATP with the use of absorbance measurement. The measurement was conducted in a 96-well plate, and 0.05% DDM (n-dodecyl-β-D-maltoside), 10 μg/mL of V-ATPase (purified from enterococci or recombinant E. coli), and 20 μM of a compound were added into a buffer (100 mM Tris-HCl at pH 8.5, 100 mM NaCl, 5 mM MgSO4, 10% glycerol). Into the mixture obtained above, ATP was added so as to be 5 mM, the whole amount was set to 100 μL, the reaction was started while stirring the mixture with a stirrer, and the reaction time was set to 30 minutes. Since the ATPase activity changes largely depending on the reaction temperature, the reaction time was adjusted within the range of 10 to 60 minutes corresponding to the air temperature on the day of the experiment. With the addition of 50 μL of 20% SDS, the V-ATPase was denatured and the reaction was terminated, and into the resultant mixture, 75 μL of color-developing liquid (5% ferrous sulfate, 1.6% ammonium molybdate, and 1 M sulfuric acid) was added to give a color. Immediately, the absorbance at a wavelength of 650 nm was measured by using a plate reader. Four kinds of KH2PO4 aqueous solutions of 0.2 mM, 0.5 mM, 1.0 mM, and 1.5 mM were reacted with MQ (ultrapure water) in the same experiment system, and then the activity of V-ATPase was measured by determining the concentration of generated inorganic phosphoric acid with the use of a created calibration curve. In this regard, a compound that had inhibited 50% or more of the activity of V-ATPase was diluted stepwisely so as to have a concentration of 10 μM, 5 μM, 2 μM, 1 μM, 500 nM, 200 nM, 100 nM, and 50 nM, and the measurement similar to the above was conducted.
From the results of the above measurement of ATPase activity, the inhibition rate was calculated comparing the decrease in the activity by assuming the activity under the condition of no compound addition as 100. A graph was created in which the inhibition rate was plotted on the vertical axis and the concentration of compound was plotted on the horizontal axis (FIG. 2). […]

[2] = system: Clostridium difficile; test: Growth inhibition of pathogenic bacteria, C. difficile; type: cell-based; settings: pH 6.5, pH 7.0, pH 7.5; OD600
Method: (§1) As the pathogenic bacteria, Enterococcus faecalis and Enterococcus faecium that are vancomycin-resistant enterococci (VRE), and Clostridium difficile that leads to deterioration of intestinal environment and is resistant to multiple drugs were prepared. The VRE were cultured by using culture media at pH 7.0, pH 7.5, and pH 8.0, the C. difficile was cultured by using culture media at pH 6.5, pH 7.0, and pH 7.5, and the difference in the number of bacteria was confirmed by measuring OD600.
(§2) The data of pH 7.0, pH 7.5, and pH 8.0 are shown in order from the top of FIG. 6. […] The data of pH 6.5, pH 7.0, and pH 7.5 are shown in order from the top of FIG. 7.

[3] = system: Enterococcus faecium (vancomycin-resistant enterococci, VRE); test: Growth inhibition of pathogenic bacteria, VRE E. faecium; type: cell-based; settings: pH 7.0, pH 7.5, pH 8.0; OD600
Method: as §1, §2

[4] = system: E. faecium of VRE; test: Test in VRE-infected mice, number of live VRE in the intestine; type: in vivo; settings: antibiotic-treated mice infected with E. faecium VRE
Method: Mice treated with antibiotics were infected with E. faecium of VRE, and V-161 was administered to the mice.

[5] = Oral administration to mice (intestinal environment), toxicity observation; type: in vivo; settings: 20 mM suspension, 0.5 ml orally once a day, five days
Method: To each of four mice, 0.5 ml of the suspension was orally administered once a day, and on five days after the start of administration, the mice were dissected and the feces and intestinal tract contents were collected, and the intestinal pH and sodium ion concentration were measured.

[6] = system: enterococci (Enterococcus hirae); test: Growth experiment of enterococci (secondary screening), OD600 at pH 7.0 and pH 8.5; type: cell-based; set-up: Growth inhibition rate (%): concentration or dose not given beside the values; settings: for Specificity: growth inhibition at pH 8.5 versus pH 7.0
Method: In the culture of enterococci (Enterococcus hirae), a culture medium in which the Na^+ concentration had been adjusted by adding a buffer solution using 2% tryptone and 1% yeast extract as the base was used. In a case of adding glucose, glucose prepared in a 50% solution was added so as to be 1% into the culture medium when the culture medium was used. The whole amount 200 μL was cultured using a 96-well plate, and OD600 was measured every hour by using a plate reader. By using culture media at pH 7.0 and pH 8.5, the effect of pH on the growth was observed. In culture of bacteria, the pH often fluctuates largely due to the decomposition of the sugars required for the growth, and it is extremely important to maintain a constant pH in this experiment, and therefore, the pH was maintained constant with the addition of a buffer suitable for each pH. Since the V-ATPase is expressed only under an alkaline condition, the growth inhibition observed with the addition of an inhibitor is largely dependent on the pH.
IC50 and the like of the above 24 kinds of compounds are described in the following table. […] Furthermore, with respect to the symbol “n.a.”, a compound having a growth inhibition rate of 60% or more at pH 7.0 is determined that there was the growth inhibition. In addition, the growth inhibition rate of a compound having no clear inhibition is also recorded for reference.

[7] = system: Enterococcus faecalis (vancomycin-resistant enterococci, VRE); test: Growth inhibition of pathogenic bacteria, VRE E. faecalis; type: cell-based; settings: pH 7.0, pH 7.5, pH 8.0; OD600
Method: as §1, §2

Compound `Cc1ccc2nc(-c3ccc(N(C)C)cc3)[nH]c2c1` [Compound V-161, N,N-dimethyl-4-(6-methyl-1H-benzo[d]imidazol-2-yl)aniline] has an IC50 ([1]; IC50 (nM), Table 2, inhibition of V-ATPase ATPase activity, pH 8.5 buffer) of 85 nM, an IC50 ([1]; IC50 (nM), Table 3, 2-phenyl benzimidazole derivatives) of 85 nM and an IC50 ([1]; high affinity for V-ATPase (IC50), unit inferred) of at most 400 nM. For the same compound, the “growth of C. difficile (FIG. 7)” value [2] was “inhibited even under a neutral or acidic condition”, the “growth of E. faecium (VRE) (FIG. 6)” value [3] was “inhibited in a pH-dependent manner; also recorded: more strongly affected by the V-161 than E. faecalis” and the “decrease of VRE in the cecum, large intestine, and feces versus controls (FIG. 10)” value ([4]; cecum, large intestine, feces) was “around 50%”. For the same compound, the “decrease of VRE in the small intestine versus controls (FIG. 10)” value ([4]; small intestine) was 97%, the toxicity in mice [5] was “toxicity was not observed” and the “non-specific inhibition / non-specific bond” value [6] was “no non-specific inhibition”. For the same compound, the “Growth inhibition rate (%)” value ([6]; Table 2, E. hirae growth, pH not stated (media pH 7.0 and pH 8.5)) was 88.7%, the Specificity ([6]; Table 2) was “+ (there was no growth inhibition at pH 7.0 but was the growth inhibition at pH 8.5)” and the “Growth inhibition rate (%)” value ([6]; Table 3, 2-phenyl benzimidazole derivatives) was 88.7%. For the same compound, the Specificity ([6]; Table 3) was “+ (there was no growth inhibition at pH 7.0 but was the growth inhibition at pH 8.5)” and the “growth of E. faecalis (VRE) (FIG. 6)” value [7] was “inhibited in a pH-dependent manner”.
